Experimental data reported in patent publication US6495603B1, “Anti-inflammatory eye drop” (Wakamoto Pharmaceutical Co., Ltd., priority 1998, dated 2002).
pEC50: −log10 of the molar value.

Legend:
[1] = test system: SV40 immortalized human corneal epithelial cell strains; assay: Cell toxicity, viable cell number by β-hexosaminidase activity, corneal epithelial cells; format: cell-based; conditions: concentration for survival rate of 50%
Procedure: (§1) There were used SV40 immortalized human corneal epithelial cell strains (Araki-Sasaki et al., IOVS, 1995, 36:614-621) as the corneal cells and Chang human conjunctival cell strains (ATCC CCL-20.2) as the conjunctival cells.
(§2) These cells were cultured in 96-well plate to a confluent of 30 to 50% and then each test substance stepwise diluted with the culture medium was added to the foregoing culture medium to thus carry out cultivation at 37° C. After completion of the cultivation, the plate was washed with PBS(−) and the number of residual cells was determined in terms of the β-hexosaminidase activity.
(§3) A group treated with only the solvent, which was used for dissolving the test substance was defined to be a negative control, the viable cell number observed for the control was assumed to be 100%, a dose-correlation curve was prepared on the basis of the viable cell number observed at each concentration of test substance and the concentration of each test substance required for achieving the survival rate of 50% (EC50) was determined from the curve and it was defined to be the toxicity value thereof.

[2] = test system: Chang human conjunctival cell strains (ATCC CCL-20.2); assay: Cell toxicity, viable cell number by β-hexosaminidase activity, conjunctival cells; format: cell-based; conditions: concentration for survival rate of 50%
Procedure: as §1, §2, §3

[3] = test system: Japanese white rabbits; assay: Inflammation in anterior of white rabbit after anterior chamber puncture (secondary aqueous humor PGE2 and protein); format: in vivo; conditions: for Inhibition Rate (PGE2 Content) / Inhibition Rate (Protein Content): anterior chamber puncture, vs control; for PGE2 Content / Protein Content: secondary aqueous humor after anterior chamber puncture
Procedure: In this Test Example, there were used Japanese white rabbits (available from Japan Medical Animal Source Laboratory) each having a body weight ranging from 1.8 to 2.4 kg and they were divided into groups each consisting of 6 to 7 animals.
After administration of 250 U/kg of heparin (available from Takeda Chemical Industries, Ltd.) to these rabbits through the ear veins thereof, a test substance was dropped in the both eyes in an amount of about 60 μl. After 45 minutes from the dropping of the substance in the eyes, these animals were locally anesthetized with benoxil eye drop (available from Santen Pharmaceutical Co., Ltd.) and then whole of the anterior chamber fluid was collected using a 27G injection needle. This anterior chamber fluid was defined to be a primary aqueous humor. After 90 minutes from the collection of the aqueous humor, the rabbits were killed by anesthetization with an excess of pentobarbital sodium and the aqueous humor was again collected. This anterior chamber fluid was defined to be a secondary aqueous humor.
The concentration of prostaglandin E2 (hereunder referred to as “PGE2”) and the amount of proteins present in the collected secondary aqueous humor were determined and they were used as indications of inflammation. After pre-treatment of 100 μl of the aqueous humor using a Bond Elute C18 column, the concentration of PGE2 was determined using Biotrack PGE2 EIA system (available from Amersham Company). On the other hand, the amount of proteins was determined according to the Lowry method using bovine serum albumin (available from Nakarai Co., Ltd.) as a reference protein.
Etodolac as a test substance was dissolved in castor oil specified in the pharmacopoeia to concentrations of 0.5% and 5%. Meloxicam was diluted with physiological saline prior to use.

[4] = test system: Japanese white male rabbits; assay: Uveitis induced by LPS in rabbits (aqueous humor PGE2 and protein); format: in vivo, rabbit; conditions: for Inhibition Rate (PGE2 Content) / Inhibition Rate (Protein Content): LPS uveitis, vs control
Procedure: In this Test Example, groups of Japanese white male rabbits each having a body weight ranging from 1.7 to 2.4 kg were used, wherein each group consisted of 12 to 16 eyes.
The lipopolysaccharide (LPS) (055: B5 type, available from Sigma Company) derived from E. coli was administered to these rabbits through the auricular veins in a dose of 1.25 μg/kg to thus induce uveitis. After 4 hours from the administration of LPS, the rabbits were killed by anesthetization with an excess of pentobarbital sodium (available from Tokyo Chemical Industry Co., Ltd.) and the anterior chamber fluid was collected.
The PGE2 concentration and the amount of proteins present in the collected aqueous humor were determined according to the same methods used in Example 1.
In this respect, each test substance was dropped in the both eyes of these animals prior to one hour from the administration of LPS at a dose of about 60 μL/eye. […]

[5] = 24 h, exposure 24 hours, Table 4
[6] = 24 h, exposure time 24 hr, Table 5
[7] = 48 h, exposure time 48 hr, Table 5
[8] = aqueous humor 4 hours after LPS, 0.1% eye drop one hour before LPS
[9] = aqueous humor 4 hours after LPS, 0.5% eye drop one hour before LPS
[10] = aqueous humor 4 hours after LPS, 1.0% eye drop one hour before LPS

## COc1ccc2c(c1)c(CC(=O)O)c(C)n2C(=O)c1ccc(Cl)cc1 [Indometacin]
[1]; [5]
  pEC50: 3.24
[2]; [5]
  pEC50: 3.43

## O=C(O)Cc1ccccc1Nc1c(Cl)cccc1Cl [Diclofenac Sodium]
[1]; [5]
  pEC50: 3.52
[1]; [6]
  pEC50: 3.20
[1]; [7]
  pEC50: 3.64
[2]; [5]
  pEC50: 3.89
[2]; [6]
  pEC50: 3.64
[2]; [7]
  pEC50: 3.66

## CCc1cccc2c3c([nH]c12)C(CC)(CC(=O)O)OCC3 (stereo not shown) [Etodolac, 1,8-diethyl-1,3,4,9-tetrahydropyrano [3,4-b] indole-1-acetic acid]
[3]; aqueous humor, 0.5% and 5% in castor oil, FIG. 1
  Effect on the PGE2 content increased by the anterior chamber puncture: inhibited the increase
[3]; aqueous humor, 0.5% and 5% in castor oil, FIG. 2
  Effect on the protein content increased by the anterior chamber puncture: inhibited the increase
[1]; [5]
  pEC50: 3.00
[2]; [5]
  pEC50: 3.10

## Cc1cnc(NC(=O)C2=C(O)c3ccccc3S(=O)(=O)N2C)s1 [Meloxicam, 4-hydroxy-2-methyl-N-(5-methyl-2-thiazolyl)-2H-1,2-benzo-thiazine-3-carboxamide 1,1-dioxide]
[3]; 0.1% eye drop
  Inhibition Rate (PGE2 Content): 75.0%
  Inhibition Rate (Protein Content): 29.3%
  PGE2 Content: 680.6 pg/mL
[3]; 0.5% eye drop
  Inhibition Rate (PGE2 Content): 90.7%
  Inhibition Rate (Protein Content): 52.2%
  PGE2 Content: 253.5 pg/mL
  Protein Content: 11.0 ± 1.5 mg/mL
[3]; 1.0% eye drop
  Inhibition Rate (PGE2 Content): 94.2%
  Inhibition Rate (Protein Content): 47.6%
  PGE2 Content: 158.3 pg/mL
  Protein Content: 12.0 ± 2.1 mg/mL
[3]; 0.1% eye drop, about 60 μl both eyes
  Protein Content: 16.2 ± 1.9 mg/mL
[4]; 0.1% eye drop
  Inhibition Rate (PGE2 Content): 55.9%
  Inhibition Rate (Protein Content): 33.8%
[4]; 0.5% eye drop
  Inhibition Rate (PGE2 Content): 68.8%
[4]; 1.0% eye drop
  Inhibition Rate (PGE2 Content): 63.1%
  Inhibition Rate (Protein Content): 49.4%
[4]; [8]
  PGE2 Content: 1102.8 pg/mL
  Protein Content: 16.0 ± 1.9 mg/mL
[4]; [9]
  PGE2 Content: 780.9 pg/mL
  Protein Content: 14.3 ± 2.6 mg/mL
[4]; [10]
  PGE2 Content: 922.8 pg/mL
  Protein Content: 12.2 ± 1.8 mg/mL
[1]; [6]
  pEC50: < 3.00
[1]; [7]
  pEC50: 3.08
[2]; [6]
  pEC50: 3.01
[2]; [7]
  pEC50: 3.42

## CS(=O)(=O)Nc1ccc([N+](=O)[O-])cc1OC1CCCCC1 [NS-398, N-(2-(cyclohexyloxy)-4-nitrophenyl) methanesulfonamide]
[4]; 0.5% in castor oil
  Inhibition Rate (PGE2 Content): 65.9%
[4]; 5.0% in castor oil
  Inhibition Rate (PGE2 Content): 59.4%
[4]; aqueous humor 4 hours after LPS 1.25 μg/kg, 0.5% in castor oil, dropped one hour before LPS
  PGE2 Content: 4553 ± 118.6 pg/mL
[4]; aqueous humor 4 hours after LPS 1.25 μg/kg, 5.0% in castor oil, dropped one hour before LPS
  PGE2 Content: 542.8 ± 79.8 pg/mL
